Source: patent US9701959B2, “High throughput screen for biologically active polypeptides” (Invenra Inc., priority 2012, dated 2017)
Ends that are not written are not given here.

Columns and labels:
E. coli MG1655 = test: Minimal Inhibitory Concentration (MIC) in E. coli, Alamar Blue, hit validation; format: cell-based; conditions: MIC at 18 hrs in E. coli; overnight at 35° C., triplicate
Experimental: Equipment: • Absorption and fluorescence plate reader—Tecan Safire • CO2 Incubator
Reagents: • Six chemically synthesized peptides—Biosynthesis Inc. • E. coli MG1655 (ATCC) • LB media (Sigma-Aldrich) • Alamar Blue assay kit (Life Tech)
3) Start an overnight culture of E. coli MG1655 in 5 mL of LB and grow at 37° C. with shaking at 200 rpm. 4) In the morning dilute overnight culture to OD600=0.00075 in 10 mL LB+1 mL Alamar Blue Stain. 5) Make seven (7), 1:2 serial dilutions of each peptide starting at […] in a final volume of 70 μL of PBS. 6) Add 20 μL of serial dilution of peptides in triplicate to a white small volume 96-well plate. Add 20 μl of PBS alone to the 8th well. 7) Add 120 μL of E. coli/Alamar blue dilution to each of the test wells. 8) Incubate overnight (18 hrs) at 35° C.

[1] = system: NF-κB-Jurkat cells (GFP reporter construct for NF-kappa-B); test: Single bead bioactivity testing in 1536-well microtiter plate (GFP fluorescence); format: cell-based; conditions: 1 and 2 beads per well, 4,800 cells per well, 18 hours at 37 C
Experimental: Equipment: • Cell culture incubator (Fisher Scientific) • Microplate reader (Tecan Safire) • Black, clear bottom, 1536-well microtiter plate (Corning)
1) Dilute NF-κB-Jurkat cells to 4×10^6 cells/ml using the supplemented RPMI 1640 growth media.
2) Prepare the 1536 well for the following layout:
3) Add 7. μl of supplemented RMPI 1640 media to all wells labeled “M” in the plate layout above.
4) Create the following cell master mix:
5) Add 3 μl of the cell master mix to the wells labeled “A” and “B” so that when the test and control beads are added the final number of cells is 4,800 per well.
6) Dilute the TNF-bead and Control-beads in supplemented RPMI 1640 to 1-2 beads per 2 μl.
7) Add 2 μl of TNF-beads to the wells of the plate labeled “A” and add 2 μl of the control-beads to the wells of the plate labeled “B”.
8) Incubate the plate for 18 hours at 37 C and 5% CO2.
9) Measure the GFP fluorescence of each well using the Tecan Safire plate reader.
The experiment was performed to determine if a single bead could be used to screen for activity of a protein that induces a cell-reporter in a microtiter plate. 1536 well plates were used to decrease the volume in which the assay was performed. Control beads consisting of a scFv antibody fragment were generated using the same protocol as the tested TNF-beads. The control beads were used to establish a baseline signal for the assay. […]

Row | Compound | Ave MIC (E. coli MG1655) | GFP signal relative to baseline (control beads) [1]
1 | CC[C@H](C)[C@H](NC(=O)CN)C(=O)NCC(=O)N[C@@H](C)C(=O)N[C@H](C(=O)N[C@@H](CC(C)C)C(=O)N[C@@H](CCCCN)C(=O)N[C@H](C(=O)N[C@@H](CC(C)C)C(=O)N[C@H](C(=O)N[C@H](C(=O)NCC(=O)N[C@@H](CC(C)C)C(=O)N1CCC[C@H]1C(=O)N[C@H](C(=O)N[C@@H](CC(C)C)C(=O)N[C@H](C(=O)N[C@@H](CO)C(=O)N[C@@H](Cc1c[nH]c2ccccc12)C(=O)N[C@H](C(=O)N[C@@H](CCCCN)C(=O)N[C@@H](CO)C(=O)N[C@@H](CCCCN)C(=O)N[C@@H](CCCNC(=N)N)C(=O)N[C@@H](CCC(N)=O)C(=O)N[C@@H](CCCCN)C(=O)O)[C@@H](C)CC)[C@@H](C)CC)[C@@H](C)O)[C@@H](C)O)[C@@H](C)O)C(C)C)C(C)C [Hit 1] | 12 µM | –
2 | TNF-beads: His-tag, spacer, TEV cleavage site, spacer, and the soluble form of TNF-alpha, SEQ ID NO: 14, on beads | – | increased signal over the baseline
3 | GIGATVKVLSTGLRFLISWIKRKRKY [Cont 1, reference compound] | >30 µM | –
4 | GIGALIKVLTTGLPMLISWIKRKRNK [Hit 2] | 14 µM | –
5 | GIGAWTKVLTTGLPGLISWIKRKRLR [Hit 3] | 20 µM | –
6 | GIGAIAKVLSTGLPRLISWIKGKRIR [Cont 2, reference compound] | 15 µM | –
7 | GIGAVLKVLGTGLPALISWIKFKRFP [Cont 3, reference compound] | >30 µM | –
